Laboratory results as given in BindingDB's records for doi:10.1039/d3md00655g (Henan University, 2024).

Key:
[1] = target: Programmed cell death 1 ligand 1 (Homo sapiens) (UniProt Q9NZQ7); assay: Inhibition of PD-1/PD-L1 (unknown origin) interaction incubated for 15 mins by HTRF assay
[2] = target: Programmed cell death 1 ligand 1 (Homo sapiens) (UniProt Q9NZQ7); assay: Inhibition of PD-1/PD-L1 (unknown origin) protein-protein interaction

Programmed cell death 1 ligand 1 (Homo sapiens), sequence (Q9NZQ7 whole entry, looked up): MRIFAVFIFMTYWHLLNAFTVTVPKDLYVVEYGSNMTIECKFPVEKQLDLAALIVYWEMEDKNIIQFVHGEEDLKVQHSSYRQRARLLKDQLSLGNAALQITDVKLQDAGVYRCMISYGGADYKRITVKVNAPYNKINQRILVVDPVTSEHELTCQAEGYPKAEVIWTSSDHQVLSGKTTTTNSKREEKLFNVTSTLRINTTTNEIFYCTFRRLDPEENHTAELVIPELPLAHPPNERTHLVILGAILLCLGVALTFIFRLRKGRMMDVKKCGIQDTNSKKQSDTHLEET

Row | Structure (SMILES) | IC50 [1] [µM] | IC50 [2] [µM]
1 | Cc1c(COc2ccc(CN3CCNCC3)c(OCc3cn(-c4cccc(C#N)c4)nn3)c2)cccc1-c1ccccc1 | 8.52 | 
2 | COc1nc(-c2cccc(-c3ccccc3F)c2C)ccc1CNCCC(N)=O |  | 0.00093
